Source: US9303042B2, “Triazolothienopyrimidine compound inhibitors of urea transporters and methods of using inhibitors” (The Regents of the University of California, priority 2012, dated 2016)
Like-named read-outs stand apart in the source and are kept apart here.

Key:
human UT-B = biological target: T1, human UT-B (Homo sapiens, UniProt Q13336); experiment: Stopped-flow light scattering assay of erythrocyte urea transport, human erythrocytes; assay type: cell-based; conditions: urea influx, 100 mM inwardly directed urea gradient
T1 construct: endogenous in cells; host or cells: erythrocytes in human venous whole blood
T1 sequence (Q13336 1-389): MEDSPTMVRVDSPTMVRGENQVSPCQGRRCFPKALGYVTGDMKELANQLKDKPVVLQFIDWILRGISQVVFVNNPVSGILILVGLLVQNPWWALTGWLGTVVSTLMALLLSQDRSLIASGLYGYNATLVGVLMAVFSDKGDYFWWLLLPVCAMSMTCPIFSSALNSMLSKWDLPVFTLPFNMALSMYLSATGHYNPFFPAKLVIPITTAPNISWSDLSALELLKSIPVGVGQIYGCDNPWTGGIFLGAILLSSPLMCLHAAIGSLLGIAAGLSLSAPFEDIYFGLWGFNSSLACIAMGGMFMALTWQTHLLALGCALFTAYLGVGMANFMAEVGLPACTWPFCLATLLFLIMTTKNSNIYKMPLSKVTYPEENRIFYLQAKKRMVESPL
Method: Erythrocyte urea and water permeabilities were measured by stopped-flow light scattering using a Hi-Tech Sf-51 instrument (Wiltshire, UK). For measurement of urea permeability, dilutions of whole blood (mouse or human) in PBS (hematocrit ˜0.5%) were incubated with test compounds for 5 min and then subjected to a 100-mM inwardly directed urea gradient. After an initial osmotic shrinking phase, the kinetics of increasing cell volume caused by urea influx was measured as the time-course of 90° scattered light intensity at 530 nm, with increasing cell volume producing reduced scattered light intensity. Urea permeability and percentage inhibition were computed as described (see, e.g., Levin et al., FASEB J. supra, 2007)). In some experiments, different urea gradients (25-200 mM) were used, or inhibitor was added only to the erythrocyte-containing or urea-containing solutions. […] Osmotic water permeability was measured using a 100 mM gradient of sucrose.
UT-B inhibition potency was assayed quantitatively by stopped-flow light scattering from the kinetics of urea influx in response to an inwardly directed urea gradient (see Materials and Methods above). […]
Measurements were done using a Hi-Tech Sf-51 instrument (Wiltshire, UK). […] The kinetics of increasing cell volume caused by urea influx was measured as the time-course of 90° scattered light intensity at 530 nm. […]

UT-B = biological target: T2, UT-B (Mus musculus, UniProt Q8VHL0); experiment: Erythrocyte lysis assay of UT-B inhibition; assay type: cell-based; design: Screening was performed using mouse erythrocytes, which strongly express UT-B; endogenous in cells; host or cells: erythrocytes in whole blood of wild-type CD1 mice; conditions: read-out: IC50
T2 sequence (Q8VHL0 1-384): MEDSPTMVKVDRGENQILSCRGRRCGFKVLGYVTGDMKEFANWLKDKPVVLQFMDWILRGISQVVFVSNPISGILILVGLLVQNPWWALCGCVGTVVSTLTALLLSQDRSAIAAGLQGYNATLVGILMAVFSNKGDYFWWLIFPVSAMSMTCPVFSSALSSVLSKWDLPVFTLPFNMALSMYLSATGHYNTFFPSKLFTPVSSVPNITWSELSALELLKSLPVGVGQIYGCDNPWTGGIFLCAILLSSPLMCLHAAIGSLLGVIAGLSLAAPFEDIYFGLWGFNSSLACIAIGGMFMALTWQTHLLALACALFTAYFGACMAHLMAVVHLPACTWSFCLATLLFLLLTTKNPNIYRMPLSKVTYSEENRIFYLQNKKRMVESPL
In short: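 Mouse erythrocytes (expressing UT-B and AQP1) subjected to an outward acetamide gradient; UT-B inhibition blocks acetamide efflux, causing swelling and lysis. Lysis quantified by absorbance at 710 nm within 5 min of hypo-osmolar shock.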

In the case of `CCc1ccc(S(=O)(=O)c2nnn3c2nc(NCc2cccs2)c2sccc23)cc1` [UTBinh-14, [3-(4-Ethyl-benzenesulfonyl)-thieno[2,3-e][1,2,3]triazolo[1,5-a]pyrimidin-5-yl]-thiophen-2-ylmethylamine], the IC50 (human UT-B) is reported as 10.3 nM, the IC50 (UT-B; Table 2, synthesized inhibitors, red blood cell lysis assay (n = 3), single-site saturation model) is reported as 11 nM and the IC50 (UT-B; erythrocyte lysis assay) is reported as 22 nM.
